Data: ChEMBL document CHEMBL1121605, “Aporphines. 30. (-)-N(2-chloroethyl)-10,11-dihydroxynor-aporphine (chloroethylnorapomorphine), a novel irreversible dopamine receptor antagonist” (J Med Chem, 1980)

Tests used:
Format in all cases: functional
Rattus norvegicus [1] = species: Rattus norvegicus; test: % inhibition of cyclic AMP production in homogenates of rat corpus striatum pre-incubated with 30 uM of NCA and 0 uM of DA
Rattus norvegicus [2] = species: Rattus norvegicus; test: % stimulation of cyclic AMP production in homogenates of rat corpus striatum pre-incubated with 10 uM of NCA and 0 uM of DA
Rattus norvegicus [3] = species: Rattus norvegicus; test: % inhibition of cyclic AMP production in homogenates of rat corpus striatum pre-incubated with 10 uM of NCA and 0 uM of DA
Rattus norvegicus [4] = species: Rattus norvegicus; test: % inhibition of cyclic AMP production in homogenates of rat corpus striatum pre-incubated with 75 uM of NCA and 0 uM of DA
Rattus norvegicus [5] = species: Rattus norvegicus; test: % stimulation of cyclic AMP production in homogenates of rat corpus striatum pre-incubated with 0 uM of NCA and 0 uM of DA
Rattus norvegicus [6] = species: Rattus norvegicus; test: % stimulation of cyclic AMP production in homogenates of rat corpus striatum pre-incubated with 75 uM of NCA and 0 uM of DA
Rattus norvegicus [7] = species: Rattus norvegicus; test: % inhibition of cyclic AMP production in homogenates of rat corpus striatum pre-incubated with 30 uM of NCA and 50 uM of DA
Rattus norvegicus [8] = species: Rattus norvegicus; test: % stimulation of cyclic AMP production in homogenates of rat corpus striatum pre-incubated with 30 uM of NCA and 50 uM of DA
Rattus norvegicus [9] = species: Rattus norvegicus; test: % inhibition of cyclic AMP production in homogenates of rat corpus striatum pre-incubated with 0 uM of NCA and 50 uM of DA
Rattus norvegicus [10] = species: Rattus norvegicus; test: % inhibition of cyclic AMP production in homogenates of rat corpus striatum pre-incubated with 0 uM of NCA and 0 uM of DA
Rattus norvegicus [11] = species: Rattus norvegicus; test: % stimulation of cyclic AMP production in homogenates of rat corpus striatum pre-incubated with 0 uM of NCA and 50 uM of DA
Rattus norvegicus [12] = species: Rattus norvegicus; test: % stimulation of cyclic AMP production in homogenates of rat corpus striatum preincubated with 30 uM of NCA and 0 uM of DA

Oc1ccc2c(c1O)-c1cccc3c1[C@@H](C2)N(CCCl)CC3
inhibition (Rattus norvegicus [1]): 56%
Stimulation (Rattus norvegicus [2]): 83.9%
inhibition (Rattus norvegicus [3]): 16%
inhibition (Rattus norvegicus [4]): 92%
Stimulation (Rattus norvegicus [5]): 100%
Stimulation (Rattus norvegicus [6]): 8.1%
inhibition (Rattus norvegicus [7]): 3%
Stimulation (Rattus norvegicus [8]): 103%
inhibition (Rattus norvegicus [9]): 2%
inhibition (Rattus norvegicus [10]): 0%
Stimulation (Rattus norvegicus [11]): 98%
Stimulation (Rattus norvegicus [12]): 43.9%
